Source: US6596878B2, “Methods and compositions for inhibiting cell proliferative disorders” (Yissum Research & Development Company of the Hebrew …, priority 1994, dated 2003)
“And” between values parts separate entries of the source, which are not always exact repeats. Equal values may be shown once. Read-outs that look alike come from different tables or passages of the source.

What was measured:
Type in all cases: cell-based
HER2 = biological target: T1, HER2 (Homo sapiens, UniProt P04626); assay: HER2-BT474 whole cell kinase ELISA
T1 construct: the human mammary carcinoma line BT474 (ATCC HTB2) expressing HER2; endogenous in cells; host or cells: BT474 human mammary carcinoma cells
Procedure: HER2-BT474 assays measuring whole cell HER2 activity was carried out as described below:
All the following steps are at room temperature and aseptically, unless stated otherwise. All ELISA plate washing is by rinsing with distilled water three times and once with TBST.
Incubate the cells in 5% CO2 at 37° C. overnight.
2. ELISA Plate Coating and Blocking

[1] = biological target: T2, chimeric receptor containing the EGFR extracellular domain and the HER2 intracellular kinase domain (Homo sapiens, UniProt P04626); assay: EGFR-HER2 chimeric receptor whole cell kinase assay (E/HER2-3T3); conditions: Table VI, cellular kinase assay
T2 construct: P00533 (Epidermal growth factor receptor)
Text: (§1) This example illustrates the ability of the exemplary compounds to inhibit receptor tyrosine kinases, such as HER2 and/or EGFR. The following target cells were used for cellular kinaseassays: NIH3T3 clone C7 (Honegger et al., supra) engineered to over-express human EGF receptor; NIH3T3 cells engineered to over-express a chimeric receptor containing the EGFR extracellular domain and the HER2 intracellular kinase domain; the human mammary carcinoma line BT474 (ATCC HTB2) expressing HER2; and the human glioblastoma line U1242 that expresses PDGFR-β. Growth assays were carried out using human mammary epithelial SKBR3 (ATCC HTB30) cells, SKOV3 (ATCC HTB77) human ovarian cancer cell line, A431 cells, MCF7 human breast carcinoma cells, MCF7 cells overexpress the HER2 kinase (MCF7-HER2), NIH3T3 cells, and NIH3T3 cells overexpressing the HER2 kinase (3T3-HER2).
2. EGFR-HER2 Chimeric Receptor
HER2 kinase activity (EGFR-3T3) in whole cells was measured as described below:
The following protocol was used:
A. Coat ELISA plates (Corning, 96 well, Cat. #25805-96) with 05-101 antibody at 0.5 μg per well in PBS, 100 μl final volume/well, and store overnight at 4° C. Coated plates are good for up to 10 days when stored at 4° C.
B. On day of use, remove coating buffer and replace with 100 μl blocking buffer (5% Carnation Instant Non-Fat Dry Milk in PBS). Incubate the plate, shaking, at room temperature (about 23° C. to 25° C.) for 30 minutes. Just prior to use, remove blocking buffer and wash plate 4 times with TBST buffer.
A. An NIH3T3 cell line overexpressing a chimeric receptor containing the EGFR extracellular domain and extracellular HER2 kinase domain can be used for this assay.
A. Choose dishes having 80-90% confluence for the experiment. Trypsinize cells and stop reaction by adding 10% fetal bovine serum. Suspend cells in DMEM medium (10% CS DMEM medium) and centrifuge once at 1500 rpm, at room temperature for 5 minutes.
B. Resuspend cells in seeding medium (DMEM, 0.5% bovine serum), and count the cells using trypan blue. Viability above 90% is acceptable. Seed cells in DMEM medium (0.5% bovine serum) at a density of 10,000 cells per well, 100 μl per well, in a 96 well microtiter plate. Incubate seeded cells in 5% CO2 at 37° C. for about 40 hours.
A. Check seeded cells for contamination using an inverted microscope. Dilute drug stock (10 mg/ml in DMSO) 1:10 in DMEM medium, then transfer 5 μl to a test well for a final drug dilution of 1:200 and a final DMSO concentration of 1%. Control wells receive DMSO alone. Incubate in 5% CO2 at 37° C. for two hours.
A. Prepare EGF ligand: dilute stock EGF in DMEM so that upon transfer of 10 μl dilute EGF (1:12 dilution), 100 nM final concentration is attained.
B. Prepare fresh HNTG* sufficient for 100 μl per well; and place on ice.
C. After 120 minutes incubation with drug, add prepared EGF ligand to cells, 10 μl per well, to a final concentration of 100 nM. Control wells receive DMEM alone. Incubate, shaking, at room temperature, for 5 minutes.
D. Remove drug, EGF, and DMEM. Wash cells twice with PBS. Transfer HNTG* to cells, 100 μl per well. Place on ice for 5 minutes. Meanwhile, remove blocking buffer from other ELISA plate and wash with TBST as described above.
E. With a pipette tip securely fitted to a micropipettor, scrape cells from plate and homogenize cell material by repeatedly aspirating and dispensing the HNTG* lysis buffer. Transfer lysate to a coated, blocked, and washed ELISA plate. Incubate shaking at room temperature for one hour.
F. Remove lysate and wash 4 times with TBST. Transfer freshly diluted anti-Ptyr antibody to ELISA plate at 100 μl per well. Incubate shaking at room temperature for 30 minutes in the presence of the anti-Ptyr antiserum (1:3000 dilution in TBST).
G. Remove the anti-Ptyr antibody and wash 4 times with TBST. Transfer the freshly diluted TAGO anti-rabbit IgG antibody to the ELISA plate at 100 μl per well. […]

[2] = system: MCF7 human breast carcinoma cells; assay: MCF-7 SRB growth assay; conditions: Table VI, 10% FBS, four days
Text: as §1
6. MCF-7 SRB Growth Assay
MCF-7 cells are seeded at 2000 cells/ well in a 96-well flat bottom plate in normal growth media, which was 10% FBS/RPMI supplemented with 2 mM Glutamine. The plate of cells is incubated for about 24 hours at 37° C. after which it receives an equal volume of compound dilution per well making the total volume per well 200 μl. The compound is prepared at 2 times the desired highest final concentration and serially diluted in the normal growth media in a 96-well round bottom plate and then transferred to plate of cells. DMSO serves as the vector control up to 0.2% as final concentration. The cells are then incubated at 37° C. in a humidified 5% CO2 incubator.
Four days following dosing of compound, the media is discarded and 200 μl/well of ice-cold 10% TCA (Trichloroacetic Acid) is added to fix cells. After 60 minutes at 4° C., the TCA is discarded and the plate is rinsed 5 times with water. The plate is then air-dried and 100 μl/well of 0.4% SRB (Sulforhodamine B from Sigma) in 1% Acetic Acid is added to stain cells for 10 minutes at room temperature. The SRB is discarded and the plate is rinsed 5 times with 1% Acetic Acid. After the plate is completely dried, 100 μl/well of 10 mM Tris-base is added to solubilize the dye. After 5 to 10 minutes, the plate is read on a Dynatech ELISA Plate Reader at dual wavelengths at 570 nm and 630 nm.

[3] = Table V, read-out: Estimated IC50 Cellular Kinase Assays HER2 (BT474)
[4] = Table VI, cellular kinase assay, read-out: HER2-BT474

IC50 (HER2; [3]) | IC50 (HER2; [4]) | fold greater inhibition of HER2 compared to EGF-R (HER2; as described in Example 1) | IC50 [1] | IC50 ([2]; Homo sapiens, MCF7, 96 h) | activity in cellular assays (HER2; cellular assays of the Examples, versus analogous compounds having bulkier R1 and R3 groups) | Molecule | IC50 [2]
14 µM | 14 µM | ≥ 7 fold | > 100 µM |  |  | N#C/C(=C\c1ccc(O)c(O)c1)C(=S)NCc1ccccc1 [Compound M13] | 
 | 0.4 µM |  | > 100 µM | 8 µM |  | CC(C)(C)c1cc(/C=C(\C#N)S(=O)(=O)CC#N)cc(C(C)(C)C)c1O [Compound M36, (E)-3-(3,5-di-t-Butyl-4-hydroxyphenyl)-2-(cyanomethylsulfonyl)acrylonitrile] | 
 | 4.2 µM |  | > 100 µM | 44 µM |  | CC(C)c1cc(C=C(C#N)C(N)=C(C#N)C#N)cc(C(C)C)c1O [Compound M22, (E)-2-(1-Amino-2,2-dicyanoethenyl-3-(3,5-diisopropyl-4-hydroxyphenyl)acrylonitrile)] | 
 | 0.65 µM |  | 18.3 µM | 9 µM |  | CC(C)c1cc(/C=C(\C#N)S(=O)(=O)c2ccccc2)cc(C(C)C)c1O [Compound M30] | 
 | 1.4 µM |  | > 100 µM | 12 µM |  | CC(C)c1cc(/C=C(\C#N)S(=O)(=O)/C(C#N)=C/c2cc(C(C)C)c(O)c(C(C)C)c2)cc(C(C)C)c1O [Compound M29] | 
 | 0.11 µM |  | > 100 µM | 2 µM |  | CC(C)(C)c1cc(/C=C(\C#N)S(=O)(=O)c2ccccn2)cc(C(C)(C)C)c1O [Compound M34, (E)-3-(3,5-di-t-Butyl-4-hydroxyphenyl)-2-[(pyrid-2-yl)sulfonyl]acrylonitrile] | 
 | 3.1 µM |  | > 100 µM | 8 µM |  | CC(C)c1cc(/C=C(\C#N)C(=S)NCCCc2ccccc2)cc(C(C)C)c1O [Compound M24, (E)-3-(3,5-Diisopropyl-4-hyrdroxyphenyl)-2-[(3-phenyl-n-propyl)aminothiocarbonyl]acrylonitrile] | 
 | 3 µM |  |  | 6 µM |  | CC(C)(C)c1cc(/C=C(\C#N)C(=O)NCCCc2ccccc2)cc(C(C)(C)C)c1O [Compound M20, (E)-3-(3,5-di-t-Butyl-4-hydroxyphenyl)-2-[(3-phenyl-n-propyl)aminocarbonyl]acrylonitrile] | 
 | 0.29 µM |  | > 100 µM | 0.3 µM |  | CC(C)(C)c1cc(/C=C(\C#N)C(=O)Nc2ccc(C(F)(F)F)cc2)cc(C(C)(C)C)c1O [Compound M35, (E)-3-(3,5-di-t-Butyl-4-hydroxyphenyl)-2-[(4-trifluoromethyl)phenylaminocarbonyl]acrylonitrile] | 
18 µM and 18.2 µM | 26 µM |  |  |  |  | N#C/C(=C\c1cc(O)c(O)c(I)c1)C(=O)NCCCc1ccccc1 [Compound M16] | 
 | 7.4 µM |  | > 100 µM | 14 µM |  | CC(C)c1cc(/C=C(\C#N)C(=O)NCCCc2ccccc2)cc(C(C)C)c1O [Compound M21, (E)-3-(3,5-Diisopropyl-4-hydroxyphenyl)-2-[(3-phenyl-n-propyl)aminocarbonyl]acrylonitrile] | 
16 µM | 16 µM |  | > 100 µM | 15 µM |  | N#C/C(=C\c1ccc(O)c(O)c1)C(=O)Nc1cccc(C(F)(F)F)c1 [Compound M15] | 
< 3 µM | 3.1 µM |  | > 100 µM | 4 µM |  | CC(C)(C)c1cc(/C=C(\C#N)C(N)=S)cc(C(C)(C)C)c1O [Compound M11] | 
 | 4.6 µM |  | > 100 µM | 33 µM |  | CC(C)c1cc(/C=C(\C#N)S(=O)(=O)CC#N)cc(C(C)C)c1O [Compound M27] | 
 | 7.3 µM |  | > 100 µM |  |  | Cc1cc(/C=C(\C#N)S(=O)(=O)c2ccccn2)cc(C)c1O [Compound M32] | 
 | 9.6 µM |  | > 100 µM |  |  | CC(C)c1cc(/C=C(\C#N)S(=O)(=O)c2ccccn2)cc(C(C)C)c1O [Compound M26] | 
 | 0.17 µM |  | > 100 µM | 1 µM |  | CC(C)(C)c1cc(/C=C(\C#N)S(=O)(=O)c2ccccc2)cc(C(C)(C)C)c1O [Compound M33, (E)-3-(3,5-di-t-Butyl-4-hydroxyphenyl)-2-(phenylsulfonyl)acrylonitrile] | 
 | 5.4 µM |  | > 100 µM |  | less activity | Cc1cc(/C=C(\C#N)S(=O)(=O)c2ccccc2)cc(C)c1O [Compound M31] | 

Molecule | IC50 (HER2; [3]) | IC50 (HER2; [4]) | fold greater inhibition of HER2 compared to EGF-R (HER2; as described in Example 1) | IC50 [1] | IC50 ([2]; Homo sapiens, MCF7, 96 h) | activity in cellular assays (HER2; cellular assays of the Examples, versus analogous compounds having bulkier R1 and R3 groups) | IC50 [2]
(E,E)-2-[[-Cyano-2-(3,5-diisopropyl-4-hydroxyphenyl)ethenyl]sulfonyl]-3-(3,5-di-t-butyl-4-hydroxyphenyl)acrylonitrile [Compound M37] |  | 0.85 µM |  | > 100 µM |  |  | 3 µM
